Reference: the supplement of paper PMC10307832

What was measured:
Assay in all cases: relative viability (nuclei count vs DMSO), 5 days (fraction); higher = more cells survive
[1] = compound: COc1ncc(-c2ccc3nccc(-c4ccnnc4)c3c2)cc1NS(=O)(=O)c1ccc(F)cc1F [Omipalisib] + Cc1nc(Nc2ncc(C(=O)Nc3c(C)cccc3Cl)s2)cc(N2CCN(CCO)CC2)n1 [Dasatinib] (partner 0.075 µM)
Method in brief: (§1)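 Medians of duplicate plates are given as relative viability. That measure is the nuclei count in treated wells divided by the count in vehicle wells. Counts were taken on 4× images of lung cancer cell lines in 1536-well plates, 5 days after pin-tool dosing the day after seeding with one drug alone or a fixed anchor-drug dose plus five library-drug doses (not always all listed) in √10 steps.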

[2] = compound: COc1ncc(-c2ccc3nccc(-c4ccnnc4)c3c2)cc1NS(=O)(=O)c1ccc(F)cc1F [Omipalisib] + CC(=O)c1c(C)c2cnc(Nc3ccc(N4CCNCC4)cn3)nc2n(C2CCCC2)c1=O [Palbociclib] (partner 0.5 µM)
Method in brief: as §1

[3] = compound: COc1ncc(-c2ccc3nccc(-c4ccnnc4)c3c2)cc1NS(=O)(=O)c1ccc(F)cc1F [Omipalisib] + CS(=O)(=O)CCNCc1ccc(-c2ccc3ncnc(Nc4ccc(OCc5cccc(F)c5)c(Cl)c4)c3c2)o1 [Lapatinib] (partner 2 µM)
Method in brief: as §1

[4] = compound: COc1ncc(-c2ccc3nccc(-c4ccnnc4)c3c2)cc1NS(=O)(=O)c1ccc(F)cc1F [Omipalisib] + Cc1nc(NC(=O)N2CCC[C@H]2C(N)=O)sc1-c1ccnc(C(C)(C)C(F)(F)F)c1 [Alpelisib] (partner 2 µM)
Method in brief: as §1

[5] = compound: COc1ncc(-c2ccc3nccc(-c4ccnnc4)c3c2)cc1NS(=O)(=O)c1ccc(F)cc1F [Omipalisib] + CS(=O)(=O)N1CCN(Cc2cc3nc(-c4cccc5[nH]ncc45)nc(N4CCOCC4)c3s2)CC1 [Pictilisib] (partner 1 µM)
Method in brief: as §1

[6] = compound: COc1ncc(-c2ccc3nccc(-c4ccnnc4)c3c2)cc1NS(=O)(=O)c1ccc(F)cc1F [Omipalisib] + CC(=O)Nc1cccc(-n2c(=O)n(C3CC3)c(=O)c3c(Nc4ccc(I)cc4F)n(C)c(=O)c(C)c32)c1 [Trametinib] (partner 0.02 µM)
Method in brief: as §1

NCI-H1666
relative viability ([1]; first compound 0.0003 µM): 0.787 | relative viability ([1]; first compound 0.003 µM): 0.673 | relative viability ([1]; first compound 0.03 µM): 0.539 | relative viability ([2]; first compound 0.0003 µM): 0.641 | relative viability ([2]; first compound 0.003 µM): 0.632 | relative viability ([2]; first compound 0.03 µM): 0.658 | relative viability ([3]; first compound 0.0003 µM): 0.502 | relative viability ([3]; first compound 0.003 µM): 0.298 | relative viability ([3]; first compound 0.03 µM): 0.24 | relative viability ([4]; first compound 0.0003 µM): 0.968 | relative viability ([4]; first compound 0.003 µM): 0.718 | relative viability ([4]; first compound 0.03 µM): 0.509 | relative viability ([5]; first compound 0.0003 µM): 0.406 | relative viability ([5]; first compound 0.003 µM): 0.335 | relative viability ([5]; first compound 0.03 µM): 0.186 | relative viability ([6]; first compound 0.0003 µM): 0.872 | relative viability ([6]; first compound 0.003 µM): 0.592 | relative viability ([6]; first compound 0.03 µM): 0.61

EKVX
relative viability ([1]; first compound 0.0003 µM): 0.398 | relative viability ([1]; first compound 0.003 µM): 0.302 | relative viability ([1]; first compound 0.03 µM): 0.175 | relative viability ([2]; first compound 0.0003 µM): 0.301 | relative viability ([2]; first compound 0.003 µM): 0.326 | relative viability ([2]; first compound 0.03 µM): 0.182 | relative viability ([3]; first compound 0.0003 µM): 0.198 | relative viability ([3]; first compound 0.003 µM): 0.17 | relative viability ([3]; first compound 0.03 µM): 0.131 | relative viability ([4]; first compound 0.0003 µM): 0.85 | relative viability ([4]; first compound 0.003 µM): 0.72 | relative viability ([4]; first compound 0.03 µM): 0.397 | relative viability ([5]; first compound 0.0003 µM): 0.45 | relative viability ([5]; first compound 0.003 µM): 0.434 | relative viability ([5]; first compound 0.03 µM): 0.393 | relative viability ([6]; first compound 0.0003 µM): 0.42 | relative viability ([6]; first compound 0.003 µM): 0.347 | relative viability ([6]; first compound 0.03 µM): 0.152

BEN
relative viability ([1]; first compound 0.0003 µM): 0.277 | relative viability ([1]; first compound 0.003 µM): 0.3 | relative viability ([1]; first compound 0.03 µM): 0.307 | relative viability ([2]; first compound 0.0003 µM): 0.434 | relative viability ([2]; first compound 0.003 µM): 0.444 | relative viability ([2]; first compound 0.03 µM): 0.452 | relative viability ([3]; first compound 0.0003 µM): 0.566 | relative viability ([3]; first compound 0.003 µM): 0.444 | relative viability ([3]; first compound 0.03 µM): 0.364 | relative viability ([4]; first compound 0.0003 µM): 0.781 | relative viability ([4]; first compound 0.003 µM): 0.58 | relative viability ([4]; first compound 0.03 µM): 0.585 | relative viability ([5]; first compound 0.0003 µM): 0.513 | relative viability ([5]; first compound 0.003 µM): 0.378 | relative viability ([5]; first compound 0.03 µM): 0.412 | relative viability ([6]; first compound 0.0003 µM): 0.828 | relative viability ([6]; first compound 0.003 µM): 0.671 | relative viability ([6]; first compound 0.03 µM): 0.602

NCI-H322M
relative viability ([1]; first compound 0.0003 µM): 0.234 | relative viability ([1]; first compound 0.003 µM): 0.245 | relative viability ([1]; first compound 0.03 µM): 0.257 | relative viability ([2]; first compound 0.0003 µM): 0.427 | relative viability ([2]; first compound 0.003 µM): 0.446 | relative viability ([2]; first compound 0.03 µM): 0.449 | relative viability ([3]; first compound 0.0003 µM): 0.53 | relative viability ([3]; first compound 0.003 µM): 0.553 | relative viability ([3]; first compound 0.03 µM): 0.415 | relative viability ([4]; first compound 0.0003 µM): 1.07 | relative viability ([4]; first compound 0.003 µM): 0.77 | relative viability ([4]; first compound 0.03 µM): 0.452 | relative viability ([5]; first compound 0.0003 µM): 0.467 | relative viability ([5]; first compound 0.003 µM): 0.577 | relative viability ([5]; first compound 0.03 µM): 0.313 | relative viability ([6]; first compound 0.0003 µM): 0.478 | relative viability ([6]; first compound 0.003 µM): 0.453 | relative viability ([6]; first compound 0.03 µM): 0.416

SW 1573
relative viability ([1]; first compound 0.0003 µM): 0.165 | relative viability ([1]; first compound 0.003 µM): 0.331 | relative viability ([1]; first compound 0.03 µM): 0.101 | relative viability ([2]; first compound 0.0003 µM): 0.335 | relative viability ([2]; first compound 0.003 µM): 0.325 | relative viability ([2]; first compound 0.03 µM): 0.191 | relative viability ([3]; first compound 0.0003 µM): 0.905 | relative viability ([3]; first compound 0.003 µM): 0.786 | relative viability ([3]; first compound 0.03 µM): 0.638 | relative viability ([4]; first compound 0.0003 µM): 0.642 | relative viability ([4]; first compound 0.003 µM): 0.511 | relative viability ([4]; first compound 0.03 µM): 0.43 | relative viability ([5]; first compound 0.0003 µM): 0.495 | relative viability ([5]; first compound 0.003 µM): 0.388 | relative viability ([5]; first compound 0.03 µM): 0.341 | relative viability ([6]; first compound 0.0003 µM): 0.441 | relative viability ([6]; first compound 0.003 µM): 0.373 | relative viability ([6]; first compound 0.03 µM): 0.226

HCC-366
relative viability ([1]; first compound 0.0003 µM): 0.575 | relative viability ([1]; first compound 0.003 µM): 0.2 | relative viability ([1]; first compound 0.03 µM): 0.179 | relative viability ([2]; first compound 0.0003 µM): 0.329 | relative viability ([2]; first compound 0.003 µM): 0.202 | relative viability ([2]; first compound 0.03 µM): 0.0493 | relative viability ([3]; first compound 0.0003 µM): 0.898 | relative viability ([3]; first compound 0.003 µM): 0.496 | relative viability ([3]; first compound 0.03 µM): 0.186 | relative viability ([4]; first compound 0.0003 µM): 0.352 | relative viability ([4]; first compound 0.003 µM): 0.182 | relative viability ([4]; first compound 0.03 µM): 0.103 | relative viability ([5]; first compound 0.0003 µM): 0.137 | relative viability ([5]; first compound 0.003 µM): 0.1 | relative viability ([5]; first compound 0.03 µM): 0.0924 | relative viability ([6]; first compound 0.0003 µM): 0.245 | relative viability ([6]; first compound 0.003 µM): 0.152 | relative viability ([6]; first compound 0.03 µM): 0.0615

A-427
relative viability ([1]; first compound 0.0003 µM): 0.686 | relative viability ([1]; first compound 0.003 µM): 0.434 | relative viability ([1]; first compound 0.03 µM): 0.625 | relative viability ([2]; first compound 0.0003 µM): 0.501 | relative viability ([2]; first compound 0.003 µM): 0.49 | relative viability ([2]; first compound 0.03 µM): 0.455 | relative viability ([3]; first compound 0.0003 µM): 1.08 | relative viability ([3]; first compound 0.003 µM): 0.897 | relative viability ([3]; first compound 0.03 µM): 1.05 | relative viability ([4]; first compound 0.0003 µM): 1.1 | relative viability ([4]; first compound 0.003 µM): 0.993 | relative viability ([4]; first compound 0.03 µM): 1.03 | relative viability ([5]; first compound 0.0003 µM): 0.729 | relative viability ([5]; first compound 0.003 µM): 0.697 | relative viability ([5]; first compound 0.03 µM): 0.744 | relative viability ([6]; first compound 0.0003 µM): 0.665 | relative viability ([6]; first compound 0.003 µM): 0.38 | relative viability ([6]; first compound 0.03 µM): 0.358

NCI-H838
relative viability ([1]; first compound 0.0003 µM): 0.263 | relative viability ([1]; first compound 0.003 µM): 0.223 | relative viability ([1]; first compound 0.03 µM): 0.23 | relative viability ([2]; first compound 0.0003 µM): 0.221 | relative viability ([2]; first compound 0.003 µM): 0.184 | relative viability ([2]; first compound 0.03 µM): 0.146 | relative viability ([3]; first compound 0.0003 µM): 0.942 | relative viability ([3]; first compound 0.003 µM): 0.683 | relative viability ([3]; first compound 0.03 µM): 0.31 | relative viability ([4]; first compound 0.0003 µM): 0.935 | relative viability ([4]; first compound 0.003 µM): 0.802 | relative viability ([4]; first compound 0.03 µM): 0.357 | relative viability ([5]; first compound 0.0003 µM): 0.422 | relative viability ([5]; first compound 0.003 µM): 0.393 | relative viability ([5]; first compound 0.03 µM): 0.313 | relative viability ([6]; first compound 0.0003 µM): 0.494 | relative viability ([6]; first compound 0.003 µM): 0.389 | relative viability ([6]; first compound 0.03 µM): 0.199
